Test results taken from PubChem BioAssay (NCI).
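In this assay, cells in 96-well plates receive the compound at five concentrations for 48 hours. Endpoints are linearly interpolated between the surrounding concentrations. TGI denotes the concentration required for complete inhibition of growth.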

Experiments:
Test in all cases: NCI anticancer screen, dose series, 48 h
[1] = test system: EKVX NSCLC
[2] = test system: K-562 leukemia
[3] = test system: LOX IMVI melanoma
[4] = test system: RXF 393 renal
[5] = test system: SF-539 CNS
[6] = test system: SK-MEL-28 melanoma
[7] = test system: SNB-19 CNS
[8] = test system: TK-10 renal
[9] = test system: HL-60(TB) leukemia
[10] = test system: NCI-H522 lung

Structure (SMILES) | TGI [1] [µM] | TGI [2] [µM] | TGI [3] [µM] | TGI [4] [µM] | TGI [5] [µM] | TGI [6] [µM] | TGI [7] [µM] | TGI [8] [µM] | TGI [9] [µM] | TGI [10] [µM]
NC1CNC(=O)c2c(Cl)sc(Cl)c21 (configuration not stated) | > 100 | > 100 | > 100 | > 100 | > 100 | > 100 | > 100 | > 100 | – | –
CC(C)(C)C1CCC2(CC1)c1[nH]c3ccccc3c1C1(CCC(C(C)(C)C)CC1)c1[nH]c3ccccc3c12 (configuration not stated) | > 100 | > 100 | > 100 | > 100 | > 100 | > 100 | > 100 | > 100 | > 100 | > 100
CCOn1c(C2(CC3CCN(C(=O)c4ccccc4)CC3)OCCO2)cc2ccccc21 | 40.1 | 38.2 | 30.4 | 31.2 | 68.1 | 27.7 | 30.9 | 24.7 | – | 35
CC(=O)OC/C=C(/C=C/CNC1CCCCC1)OC(C)=O | 30.1 | 32 | 37.5 | 32.5 | 24.2 | 30.9 | 49.9 | 30.6 | – | 42.1
O=C(N/N=C/c1ccco1)c1cc(I)cc(I)c1O | 37.2 | > 50 | > 50 | > 50 | 26 | > 50 | > 50 | – | 27.7 | > 50
COc1c(Br)cc(CC(N)=O)c(O)c1Br | > 100 | > 100 | > 100 | > 100 | > 100 | > 100 | > 100 | > 100 | > 100 | > 100
O=C(CSc1n[nH]c(=O)[nH]c1=O)NNC(=O)c1cccc2nc3ccccc3nc12 | > 100 | > 100 | > 100 | > 100 | > 100 | > 100 | > 100 | > 100 | > 100 | –
O=[N+]([O-])c1ccc(NC(=S)N=Nc2c(O)[nH]c3ccc(Br)cc23)cc1 | – | > 100 | 22.4 | 26.5 | 82.9 | 33.5 | – | 28.5 | 7.09 | 27.5
Nc1ccc(S(=O)(=O)Nc2nc3ccccc3nc2N2CCCCC2)cc1 | > 100 | > 100 | > 100 | > 100 | > 100 | > 100 | > 100 | > 100 | > 100 | > 100
CNC(=O)N(CCC#N)[C@H]1CCCC[C@@H]1N(C(=O)NC)c1ccccc1 | > 100 | > 100 | > 100 | > 100 | > 100 | > 100 | > 100 | > 100 | – | > 100
COc1c(C)c2nc3ccccc3[nH]c2c2c(=O)ccnc12 | > 100 | > 100 | > 100 | 71.7 | > 100 | > 100 | > 100 | > 100 | > 100 | > 100
COc1ccc2c(c1)CN1C(=N2)CSC1c1ccccc1Cl (configuration not stated) | 35.4 | 30.5 | 28.9 | 29.7 | 32.1 | 26.9 | > 100 | 68 | 24.9 | 39.2
CCOc1cc(-c2nc3ccccn3c2/N=C/c2cc(Br)ccc2O)ccc1O | 76.6 | > 100 | > 100 | 32 | > 100 | > 100 | 52.6 | 48.7 | > 100 | > 100
N#Cc1cc2c(cc1Cl)Sc1nccn1S2(=O)=O | 35.9 | 17.2 | 3.19 | 15.5 | 12.2 | 7.33 | 24.6 | 28 | 16.6 | 4.11
CC1(CNCc2ccccc2)CC(CCc2ccccc2)N(C(=O)c2ccc([N+](=O)[O-])cc2)C1Cc1ccc(O)cc1 (configuration not stated) | 31 | > 100 | 26.2 | 17.4 | 35.2 | > 100 | 29.1 | 30.9 | 54.4 | 22.3
O=C(Cc1ccc([N+](=O)[O-])cc1)OCC#CCOC(=O)Cc1ccc([N+](=O)[O-])cc1 | > 10 | > 10 | > 10 | > 10 | > 10 | – | > 10 | > 10 | > 10 | > 10
Cn1c2ccccc2n2c(=O)c3cc([N+](=O)[O-])ccc3c(C#N)c12 | > 100 | > 100 | > 100 | > 100 | > 100 | > 100 | > 100 | > 100 | > 100 | > 100
CCOC(=O)C(CC#Cc1ccc(C#CCC(NC(C)=O)C(=O)OCC)cc1)NC(C)=O (configuration not stated) | > 100 | > 100 | > 100 | > 100 | > 100 | > 100 | > 100 | > 100 | > 100 | > 100
O=C1CSC(c2cccs2)N1c1nc2cc3sc(N4C(=O)CSC4c4cccs4)nc3cc2s1 (configuration not stated) | > 50 | > 50 | > 50 | > 50 | 3.6 | > 50 | > 50 | > 50 | > 50 | > 50
Cc1cn(C(C)OCCN2C(=O)c3ccccc3C2=O)c(=O)[nH]c1=O (configuration not stated) | > 100 | > 100 | > 100 | > 100 | > 100 | > 100 | > 100 | – | – | –
CCOC(=O)C1=C(OC(OCC)C(CC)[Se]c2ccccc2)CCCC1 (configuration not stated) | 78.9 | > 100 | 18.7 | 37.7 | 35.4 | > 100 | > 100 | > 100 | 47.8 | 28.4
